SMILES strings stand for the structures. Activity calls are given as the source filed them. The rule behind the calls is not given here.

For orientation: IC50 means the point on the concentration scale where inhibition reaches its midpoint. Higher therefore signals lower potency. What is called MRT inf is the average time that molecules of a dose stay in the body.

Series [1] has as its target T1, Poly [ADP-ribose] polymerase tankyrase-1 (Homo sapiens, UniProt O95271).
T1 sequence (O95271 whole entry): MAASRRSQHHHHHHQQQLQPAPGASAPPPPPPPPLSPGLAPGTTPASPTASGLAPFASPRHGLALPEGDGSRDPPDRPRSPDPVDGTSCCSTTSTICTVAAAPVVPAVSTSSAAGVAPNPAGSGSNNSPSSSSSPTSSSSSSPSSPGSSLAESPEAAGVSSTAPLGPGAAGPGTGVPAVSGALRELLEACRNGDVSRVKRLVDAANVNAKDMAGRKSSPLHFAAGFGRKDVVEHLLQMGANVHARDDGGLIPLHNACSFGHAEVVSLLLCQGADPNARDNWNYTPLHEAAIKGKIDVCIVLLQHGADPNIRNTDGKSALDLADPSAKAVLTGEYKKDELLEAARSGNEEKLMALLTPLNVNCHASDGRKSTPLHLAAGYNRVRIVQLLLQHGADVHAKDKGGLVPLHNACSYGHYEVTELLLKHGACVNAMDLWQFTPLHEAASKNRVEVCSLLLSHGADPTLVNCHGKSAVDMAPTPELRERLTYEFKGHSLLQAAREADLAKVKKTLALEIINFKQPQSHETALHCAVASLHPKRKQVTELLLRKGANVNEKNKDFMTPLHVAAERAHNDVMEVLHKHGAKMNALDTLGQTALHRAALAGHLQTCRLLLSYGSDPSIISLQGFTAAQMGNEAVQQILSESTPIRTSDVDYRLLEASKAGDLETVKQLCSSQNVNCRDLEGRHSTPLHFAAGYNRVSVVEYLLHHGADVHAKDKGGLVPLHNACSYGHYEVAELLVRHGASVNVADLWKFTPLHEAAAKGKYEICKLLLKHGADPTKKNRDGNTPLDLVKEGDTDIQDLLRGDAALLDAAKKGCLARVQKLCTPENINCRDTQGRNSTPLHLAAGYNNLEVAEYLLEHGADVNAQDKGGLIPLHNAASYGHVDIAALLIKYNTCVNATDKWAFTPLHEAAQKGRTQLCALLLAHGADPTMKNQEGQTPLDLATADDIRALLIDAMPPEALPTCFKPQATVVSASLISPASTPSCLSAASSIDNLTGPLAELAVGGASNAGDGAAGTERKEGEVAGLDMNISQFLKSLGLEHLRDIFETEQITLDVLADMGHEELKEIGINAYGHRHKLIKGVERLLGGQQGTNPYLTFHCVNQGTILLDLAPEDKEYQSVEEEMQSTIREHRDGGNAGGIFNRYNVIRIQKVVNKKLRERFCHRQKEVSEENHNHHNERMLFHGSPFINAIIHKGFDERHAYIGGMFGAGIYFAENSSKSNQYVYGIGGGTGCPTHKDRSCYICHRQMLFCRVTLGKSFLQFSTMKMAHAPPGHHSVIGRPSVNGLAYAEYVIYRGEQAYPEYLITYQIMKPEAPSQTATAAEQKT
In words: Inhibition of PARP5a (unknown origin).

The nature of series [2]: MRT (0 to infinity) in Sprague-Dawley rat at 1 mg/kg, iv by LC-MS/MS analysis. It counts as ADME, organism-based. To be noted: in vivo.
The subject of the next series is MDA-MB-231. The experiment in a line: Induction of cell cycle arrest in human MDA-MB-231 cells assessed as accumulation of cells at G2/M phase at 2 uM incubated for 3 days by PI staining based flow cytometric analysis. The conditions noted are these: time 3.0 day. It counts as functional. (In flow cytometry, cells or beads pass a laser one at a time.)
The nature of series [3]: Metabolic stability in rat liver microsome assessed as intrinsic clearance. It counts as ADME. To be noted: liver microsomes, read-out: CLH. Background: Liver microsomes are a subcellular fraction often used to study metabolism.

For the compound `COc1ccc(Cl)cc1-c1cc(C)ncc1C(=O)Nc1nnc(OCC2CCN(C(=O)c3cc(Cc4n[nH]c(=O)c5ccccc45)ccc3F)CC2)s1`, the IC50 in series [1] was 206 nM. For the same compound, the mean residence time (MRT inf) in series [2] was found to be 36 min. The outcome in the series with MDA-MB-231 was Active. In series [3], the CLint scaled came to 802 mL/min/kg.

(Values after ChEMBL document CHEMBL5518204, “Discovery and Proof of Concept of Potent Dual Polθ/PARP Inhibitors for Efficient Treatment of Homologous Recombination-Deficient Tumors” (J Med Chem, 2024).)
